Reference: ChEMBL document CHEMBL5316337, “Critical Role of Position 10 Residue in the Polymyxin Antimicrobial Activity” (J Med Chem, 2023)
Converted amounts (≈) assume the structure as drawn.

Tests used:
Type in all cases: functional
Enterobacter cloacae [1] = experiment: Antibacterial activity against polymyxin-susceptible Enterobacter cloacae FADD1-EC006 clinical isolates assessed as reduction in bacterial growth by broth microdilution method
Klebsiella pneumoniae [2] = experiment: Antibacterial activity against Carbapenem-resistant Klebsiella pneumoniae FADD1-KP032 clinical isolates assessed as reduction in bacterial growth by broth microdilution method
Klebsiella pneumoniae [3] = experiment: Antibacterial activity against Carbapenem-resistant Klebsiella pneumoniae FADD1-KP022 clinical isolates assessed as reduction in bacterial growth by broth microdilution method
Enterobacter cloacae [4] = experiment: Antibacterial activity against polymyxin-susceptible Enterobacter cloacae FADD1-EC001 clinical isolates assessed as reduction in bacterial growth by broth microdilution method
Pseudomonas aeruginosa [5] = experiment: Antibacterial activity against Carbapenem-resistant Pseudomonas aeruginosa FADD1-PA001 clinical isolates assessed as reduction in bacterial growth by broth microdilution method
Acinetobacter baumannii [6] = experiment: Antibacterial activity against polymyxin-susceptible Acinetobacter baumannii ATCC 19606 clinical isolates assessed as reduction in bacterial growth by broth microdilution method
Acinetobacter baumannii [7] = experiment: Antibacterial activity against Carbapenem-resistant Acinetobacter baumannii FADD1-AB030 clinical isolates assessed as reduction in bacterial growth by broth microdilution method
Acinetobacter baumannii [8] = experiment: Antibacterial activity against Carbapenem-resistant Acinetobacter baumannii FADD1-AB034 clinical isolates assessed as reduction in bacterial growth by broth microdilution method
Enterobacter cloacae [9] = experiment: Antibacterial activity against polymyxin-susceptible Enterobacter cloacae FADD1-EC003 clinical isolates assessed as reduction in bacterial growth by broth microdilution method
Acinetobacter baumannii [10] = experiment: Antibacterial activity against polymyxin-susceptible Acinetobacter baumannii ATCC 17978 clinical isolates assessed as reduction in bacterial growth by broth microdilution method
Pseudomonas aeruginosa [11] = experiment: Antibacterial activity against polymyxin-susceptible Pseudomonas aeruginosa FADD1-PA038 clinical isolates assessed as reduction in bacterial growth by broth microdilution method
Klebsiella pneumoniae [12] = experiment: Antibacterial activity against Carbapenem-resistant Klebsiella pneumoniae FADD1-KP065 clinical isolates assessed as reduction in bacterial growth by broth microdilution method
Pseudomonas aeruginosa [13] = experiment: Antibacterial activity against Carbapenem-resistant Pseudomonas aeruginosa FADD1-PA022 clinical isolates assessed as reduction in bacterial growth by broth microdilution method
Pseudomonas aeruginosa [14] = experiment: Antibacterial activity against polymyxin-susceptible Pseudomonas aeruginosa ATCC 27853 clinical isolates assessed as reduction in bacterial growth by broth microdilution method
Klebsiella pneumoniae [15] = experiment: Antibacterial activity against Carbapenem-resistant Klebsiella pneumoniae BM1 clinical isolates assessed as reduction in bacterial growth by broth microdilution method
Klebsiella pneumoniae [16] = experiment: Antibacterial activity against polymyxin-susceptible Klebsiella pneumoniae ATCC 700721 clinical isolates assessed as reduction in bacterial growth by broth microdilution method
Pseudomonas aeruginosa [17] = experiment: Antibacterial activity against polymyxin-susceptible Pseudomonas aeruginosa FADD1-PA025 clinical isolates assessed as reduction in bacterial growth by broth microdilution method

## CC[C@H](C)CCCCC(=O)N[C@@H](CCN)C(=O)N[C@H](C(=O)N[C@@H](CCN)C(=O)N[C@H]1CCNC(=O)[C@H](Cc2c[nH]c3ccccc23)NC(=O)[C@H](CCN)NC(=O)[C@H](CCN)NC(=O)[C@H](CC(C)C)NC(=O)[C@@H](Cc2ccccc2)NC(=O)[C@H](CCN)NC1=O)[C@@H](C)O
Enterobacter cloacae [1]
  MIC: 4 µg/mL (≈ 3.1 µM)
Klebsiella pneumoniae [2]
  MIC: 4 µg/mL (≈ 3.1 µM)
Klebsiella pneumoniae [3]
  MIC: 1 µg/mL (≈ 0.776 µM)
Enterobacter cloacae [4]
  MIC: 8 µg/mL (≈ 6.21 µM)
Pseudomonas aeruginosa [5]
  MIC: 4 µg/mL (≈ 3.1 µM)
Acinetobacter baumannii [6]
  MIC: 2 µg/mL (≈ 1.55 µM)
Acinetobacter baumannii [7]
  MIC: 2 µg/mL (≈ 1.55 µM)
Acinetobacter baumannii [8]
  MIC: 4 µg/mL (≈ 3.1 µM)
Enterobacter cloacae [9]
  MIC: 8 µg/mL (≈ 6.21 µM)
Acinetobacter baumannii [10]
  MIC: 4 µg/mL (≈ 3.1 µM)
Pseudomonas aeruginosa [11]
  MIC: 4 µg/mL (≈ 3.1 µM)
Klebsiella pneumoniae [12]
  MIC: 2 µg/mL (≈ 1.55 µM)
Pseudomonas aeruginosa [13]
  MIC: 2 µg/mL (≈ 1.55 µM)
Pseudomonas aeruginosa [14]
  MIC: 2 µg/mL (≈ 1.55 µM)
Klebsiella pneumoniae [15]
  MIC: 4 µg/mL (≈ 3.1 µM)
Klebsiella pneumoniae [16]
  MIC: 8 µg/mL (≈ 6.21 µM)
Pseudomonas aeruginosa [17]
  MIC: 2 µg/mL (≈ 1.55 µM)

## CC[C@H](C)CCCCC(=O)N[C@@H](CCN)C(=O)N[C@H](C(=O)N[C@@H](CCN)C(=O)N[C@H]1CCNC(=O)[C@H](CCCCN)NC(=O)[C@H](CCN)NC(=O)[C@H](CCN)NC(=O)[C@H](CC(C)C)NC(=O)[C@@H](Cc2ccccc2)NC(=O)[C@H](CCN)NC1=O)[C@@H](C)O
Enterobacter cloacae [1]
  MIC: 32 µg/mL (≈ 26 µM)
Klebsiella pneumoniae [2]
  MIC: 32 µg/mL (≈ 26 µM)
Klebsiella pneumoniae [3]
  MIC: 2 µg/mL (≈ 1.63 µM)
Enterobacter cloacae [4]
  MIC: 32 µg/mL (≈ 26 µM)
Pseudomonas aeruginosa [5]
  MIC: > 32 µg/mL
Acinetobacter baumannii [6]
  MIC: 32 µg/mL (≈ 26 µM)
Acinetobacter baumannii [7]
  MIC: 32 µg/mL (≈ 26 µM)
Acinetobacter baumannii [8]
  MIC: 8 µg/mL (≈ 6.5 µM)
Enterobacter cloacae [9]
  MIC: 16 µg/mL (≈ 13 µM)
Acinetobacter baumannii [10]
  MIC: 8 µg/mL (≈ 6.5 µM)
Pseudomonas aeruginosa [11]
  MIC: > 32 µg/mL
Klebsiella pneumoniae [12]
  MIC: 4 µg/mL (≈ 3.25 µM)
Pseudomonas aeruginosa [13]
  MIC: 1 µg/mL (≈ 0.813 µM)
Pseudomonas aeruginosa [14]
  MIC: > 32 µg/mL
Klebsiella pneumoniae [15]
  MIC: > 32 µg/mL
Klebsiella pneumoniae [16]
  MIC: > 32 µg/mL
Pseudomonas aeruginosa [17]
  MIC: > 32 µg/mL

## CC[C@H](C)CCCCC(=O)N[C@@H](CCN)C(=O)N[C@H](C(=O)N[C@@H](CCN)C(=O)N[C@H]1CCNC(=O)[C@H](CC(=O)O)NC(=O)[C@H](CCN)NC(=O)[C@H](CCN)NC(=O)[C@H](CC(C)C)NC(=O)[C@@H](Cc2ccccc2)NC(=O)[C@H](CCN)NC1=O)[C@@H](C)O
Enterobacter cloacae [1]
  MIC: > 32 µg/mL
Klebsiella pneumoniae [2]
  MIC: 32 µg/mL (≈ 26.3 µM)
Klebsiella pneumoniae [3]
  MIC: 16 µg/mL (≈ 13.1 µM)
Enterobacter cloacae [4]
  MIC: > 32 µg/mL
Pseudomonas aeruginosa [5]
  MIC: > 32 µg/mL
Acinetobacter baumannii [6]
  MIC: > 32 µg/mL
Acinetobacter baumannii [7]
  MIC: > 32 µg/mL
Acinetobacter baumannii [8]
  MIC: > 32 µg/mL
Enterobacter cloacae [9]
  MIC: > 32 µg/mL
Acinetobacter baumannii [10]
  MIC: > 32 µg/mL
Pseudomonas aeruginosa [11]
  MIC: > 32 µg/mL
Klebsiella pneumoniae [12]
  MIC: 16 µg/mL (≈ 13.1 µM)
Pseudomonas aeruginosa [13]
  MIC: 8 µg/mL (≈ 6.57 µM)
Pseudomonas aeruginosa [14]
  MIC: > 32 µg/mL
Klebsiella pneumoniae [15]
  MIC: 32 µg/mL (≈ 26.3 µM)
Klebsiella pneumoniae [16]
  MIC: > 32 µg/mL
Pseudomonas aeruginosa [17]
  MIC: > 32 µg/mL

## CC[C@H](C)CCCCC(=O)N[C@@H](CCN)C(=O)N[C@H](C(=O)N[C@@H](CCN)C(=O)N[C@H]1CCNC(=O)[C@H](CCSC)NC(=O)[C@H](CCN)NC(=O)[C@H](CCN)NC(=O)[C@H](CC(C)C)NC(=O)[C@@H](Cc2ccccc2)NC(=O)[C@H](CCN)NC1=O)[C@@H](C)O
Enterobacter cloacae [1]
  MIC: 16 µg/mL (≈ 13 µM)
Klebsiella pneumoniae [2]
  MIC: 2 µg/mL (≈ 1.62 µM)
Klebsiella pneumoniae [3]
  MIC: 1 µg/mL (≈ 0.811 µM)
Enterobacter cloacae [4]
  MIC: 8 µg/mL (≈ 6.49 µM)
Pseudomonas aeruginosa [5]
  MIC: 2 µg/mL (≈ 1.62 µM)
Acinetobacter baumannii [6]
  MIC: 4 µg/mL (≈ 3.24 µM)
Acinetobacter baumannii [7]
  MIC: 2 µg/mL (≈ 1.62 µM)
Acinetobacter baumannii [8]
  MIC: 4 µg/mL (≈ 3.24 µM)
Enterobacter cloacae [9]
  MIC: 4 µg/mL (≈ 3.24 µM)
Acinetobacter baumannii [10]
  MIC: 4 µg/mL (≈ 3.24 µM)
Pseudomonas aeruginosa [11]
  MIC: 2 µg/mL (≈ 1.62 µM)
Klebsiella pneumoniae [12]
  MIC: 1 µg/mL (≈ 0.811 µM)
Pseudomonas aeruginosa [13]
  MIC: 1 µg/mL (≈ 0.811 µM)
Pseudomonas aeruginosa [14]
  MIC: 1 µg/mL (≈ 0.811 µM)
Klebsiella pneumoniae [15]
  MIC: 2 µg/mL (≈ 1.62 µM)
Klebsiella pneumoniae [16]
  MIC: 4 µg/mL (≈ 3.24 µM)
Pseudomonas aeruginosa [17]
  MIC: 2 µg/mL (≈ 1.62 µM)

## CC[C@H](C)CCCCC(=O)N[C@@H](CCN)C(=O)N[C@H](C(=O)N[C@@H](CCN)C(=O)N[C@H]1CCNC(=O)[C@H](Cc2ccc(O)cc2)NC(=O)[C@H](CCN)NC(=O)[C@H](CCN)NC(=O)[C@H](CC(C)C)NC(=O)[C@@H](Cc2ccccc2)NC(=O)[C@H](CCN)NC1=O)[C@@H](C)O
Enterobacter cloacae [1]
  MIC: 16 µg/mL (≈ 12.6 µM)
Klebsiella pneumoniae [2]
  MIC: 4 µg/mL (≈ 3.16 µM)
Klebsiella pneumoniae [3]
  MIC: 0.5 µg/mL (≈ 0.395 µM)
Enterobacter cloacae [4]
  MIC: 16 µg/mL (≈ 12.6 µM)
Pseudomonas aeruginosa [5]
  MIC: 4 µg/mL (≈ 3.16 µM)
Acinetobacter baumannii [6]
  MIC: 2 µg/mL (≈ 1.58 µM)
Acinetobacter baumannii [7]
  MIC: 4 µg/mL (≈ 3.16 µM)
Acinetobacter baumannii [8]
  MIC: 2 µg/mL (≈ 1.58 µM)
Enterobacter cloacae [9]
  MIC: 8 µg/mL (≈ 6.32 µM)
Acinetobacter baumannii [10]
  MIC: 2 µg/mL (≈ 1.58 µM)
Pseudomonas aeruginosa [11]
  MIC: 8 µg/mL (≈ 6.32 µM)
Klebsiella pneumoniae [12]
  MIC: 4 µg/mL (≈ 3.16 µM)
Pseudomonas aeruginosa [13]
  MIC: 1 µg/mL (≈ 0.79 µM)
Pseudomonas aeruginosa [14]
  MIC: 2 µg/mL (≈ 1.58 µM)
Klebsiella pneumoniae [15]
  MIC: 1 µg/mL (≈ 0.79 µM)
Klebsiella pneumoniae [16]
  MIC: 8 µg/mL (≈ 6.32 µM)
Pseudomonas aeruginosa [17]
  MIC: 2 µg/mL (≈ 1.58 µM)

## CC[C@H](C)CCCCC(=O)N[C@@H](CCN)C(=O)N[C@H](C(=O)N[C@@H](CCN)C(=O)N[C@H]1CCNC(=O)[C@H](CCC(=O)O)NC(=O)[C@H](CCN)NC(=O)[C@H](CCN)NC(=O)[C@H](CC(C)C)NC(=O)[C@@H](Cc2ccccc2)NC(=O)[C@H](CCN)NC1=O)[C@@H](C)O
Enterobacter cloacae [1]
  MIC: > 32 µg/mL
Klebsiella pneumoniae [2]
  MIC: > 32 µg/mL
Klebsiella pneumoniae [3]
  MIC: 32 µg/mL (≈ 26 µM)
Enterobacter cloacae [4]
  MIC: > 32 µg/mL
Pseudomonas aeruginosa [5]
  MIC: > 32 µg/mL
Acinetobacter baumannii [6]
  MIC: > 32 µg/mL
Acinetobacter baumannii [7]
  MIC: > 32 µg/mL
Acinetobacter baumannii [8]
  MIC: > 32 µg/mL
Enterobacter cloacae [9]
  MIC: > 32 µg/mL
Acinetobacter baumannii [10]
  MIC: > 32 µg/mL
Pseudomonas aeruginosa [11]
  MIC: > 32 µg/mL
Klebsiella pneumoniae [12]
  MIC: > 32 µg/mL
Pseudomonas aeruginosa [13]
  MIC: > 32 µg/mL
Pseudomonas aeruginosa [14]
  MIC: > 32 µg/mL
Klebsiella pneumoniae [15]
  MIC: > 32 µg/mL
Klebsiella pneumoniae [16]
  MIC: > 32 µg/mL
Pseudomonas aeruginosa [17]
  MIC: > 32 µg/mL
